In ChEMBL document CHEMBL4765353, “Antitubercular polyhalogenated phenothiazines and phenoselenazine with reduced binding to CNS receptors” (Eur J Med Chem, 2020):
Converted amounts (≈) assume the structure as drawn.

How the values were obtained:
[1] = system: Mycobacterium tuberculosis; format: functional; settings: H37Rv, 240 h, time 10 day
[2] = system: Mycobacterium tuberculosis; format: functional; settings: 504 h, time 3 weeks, read-out: MIC100
Vero = experiment: Cytotoxicity against African green monkey Vero cells assessed as decrease in cell viability incubated for 72 hrs by resazurin assay; format: cell-based; settings: Chlorocebus sabaeus
[3] = system: Mycolicibacterium smegmatis; experiment: Inhibition of NDH-2 in wild type Mycobacterium smegmatis mc24517 inverted membrane vesicles assessed as reduction in oxygen consumption at 50 uM by NADH oxygen consumption assay; format: cell membranes; settings: Membrane vesicle
[4] = system: Mycobacterium tuberculosis H37Rv; experiment: Inhibition of NDH-2 in Mycobacterium tuberculosis H37Rv inverted membrane vesicles over expressing ndh gene assessed as reduction in oxygen consumption at 50 uM by NADH oxygen consumption assay; format: cell membranes; settings: Membrane vesicle
[5] = system: Mycobacterium tuberculosis; experiment: Antitubercular activity against Mycobacterium tuberculosis H37Rv incubated for 7 days by Microplate Alamar Blue Assay; format: functional; settings: 168 h, time 7 day
[6] = system: Mycobacterium tuberculosis; experiment: Antitubercular activity against Mycobacterium tuberculosis H37Rv incubated for 4 days by Microplate Alamar Blue Assay; format: functional; settings: 96 h, time 4 day
[7] = biological target: 5-hydroxytryptamine receptor 6 (Homo sapiens, UniProt P50406); experiment: Displacement of [3H]-LSD from human 5HT6 receptor expressed in HEK293 cells; format: cell-based
5-hydroxytryptamine receptor 6, sequence (P50406 whole entry): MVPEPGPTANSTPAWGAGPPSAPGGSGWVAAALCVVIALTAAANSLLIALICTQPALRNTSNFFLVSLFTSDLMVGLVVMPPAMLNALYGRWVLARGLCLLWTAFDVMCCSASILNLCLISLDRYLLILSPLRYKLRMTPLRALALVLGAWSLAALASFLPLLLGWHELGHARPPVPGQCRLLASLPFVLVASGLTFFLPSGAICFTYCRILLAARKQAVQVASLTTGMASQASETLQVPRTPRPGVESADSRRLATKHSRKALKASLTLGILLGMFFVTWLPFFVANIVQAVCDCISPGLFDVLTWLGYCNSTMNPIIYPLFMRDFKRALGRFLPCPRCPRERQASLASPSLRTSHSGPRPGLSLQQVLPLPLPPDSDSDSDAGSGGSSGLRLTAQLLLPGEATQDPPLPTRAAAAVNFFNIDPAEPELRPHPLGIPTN

[8] = biological target: 5-hydroxytryptamine receptor 7 (Homo sapiens, UniProt P34969); experiment: Displacement of [3H]-5-CT from human 5HT7 receptor expressed in HEK293 cells; format: cell-based
5-hydroxytryptamine receptor 7, sequence (P34969 whole entry): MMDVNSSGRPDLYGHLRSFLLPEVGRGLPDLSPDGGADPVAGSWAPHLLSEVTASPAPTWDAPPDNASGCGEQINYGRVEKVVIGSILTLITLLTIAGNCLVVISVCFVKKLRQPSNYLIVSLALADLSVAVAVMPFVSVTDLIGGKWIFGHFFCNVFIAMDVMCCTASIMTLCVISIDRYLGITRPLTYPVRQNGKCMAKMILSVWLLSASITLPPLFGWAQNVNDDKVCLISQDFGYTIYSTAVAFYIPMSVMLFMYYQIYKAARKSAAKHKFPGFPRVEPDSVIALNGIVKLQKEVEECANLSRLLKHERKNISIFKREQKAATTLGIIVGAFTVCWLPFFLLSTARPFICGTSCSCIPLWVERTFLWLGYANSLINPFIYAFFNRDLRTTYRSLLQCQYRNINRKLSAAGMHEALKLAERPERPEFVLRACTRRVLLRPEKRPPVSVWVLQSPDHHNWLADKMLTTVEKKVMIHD

D(2) dopamine receptor = D(2) dopamine receptor (Homo sapiens, UniProt P14416); experiment: Displacement of [3H]-Raclopride from human D2 receptor (unknown origin) expressed in HEK293 cell membranes; parameters: species or system Cell membrane
D(2) dopamine receptor, sequence (P14416 whole entry): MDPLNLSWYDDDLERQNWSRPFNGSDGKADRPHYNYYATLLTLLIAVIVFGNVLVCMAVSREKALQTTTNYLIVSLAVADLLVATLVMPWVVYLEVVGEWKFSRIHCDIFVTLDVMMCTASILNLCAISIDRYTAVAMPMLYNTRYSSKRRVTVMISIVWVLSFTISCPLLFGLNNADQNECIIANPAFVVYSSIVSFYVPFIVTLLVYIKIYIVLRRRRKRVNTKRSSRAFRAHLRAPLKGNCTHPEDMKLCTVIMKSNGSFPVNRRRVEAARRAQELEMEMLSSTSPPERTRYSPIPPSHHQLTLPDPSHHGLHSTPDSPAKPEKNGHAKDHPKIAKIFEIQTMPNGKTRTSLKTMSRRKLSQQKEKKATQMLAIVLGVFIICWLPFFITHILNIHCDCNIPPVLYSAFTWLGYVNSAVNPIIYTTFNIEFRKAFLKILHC

[9] = biological target: 5-hydroxytryptamine receptor 2A (Homo sapiens, UniProt P28223); experiment: Displacement of [3H]-Ketanserin from human 5HT2A receptor expressed in CHO-K1 cells; format: ADME, cell-based
5-hydroxytryptamine receptor 2A, sequence (P28223 whole entry): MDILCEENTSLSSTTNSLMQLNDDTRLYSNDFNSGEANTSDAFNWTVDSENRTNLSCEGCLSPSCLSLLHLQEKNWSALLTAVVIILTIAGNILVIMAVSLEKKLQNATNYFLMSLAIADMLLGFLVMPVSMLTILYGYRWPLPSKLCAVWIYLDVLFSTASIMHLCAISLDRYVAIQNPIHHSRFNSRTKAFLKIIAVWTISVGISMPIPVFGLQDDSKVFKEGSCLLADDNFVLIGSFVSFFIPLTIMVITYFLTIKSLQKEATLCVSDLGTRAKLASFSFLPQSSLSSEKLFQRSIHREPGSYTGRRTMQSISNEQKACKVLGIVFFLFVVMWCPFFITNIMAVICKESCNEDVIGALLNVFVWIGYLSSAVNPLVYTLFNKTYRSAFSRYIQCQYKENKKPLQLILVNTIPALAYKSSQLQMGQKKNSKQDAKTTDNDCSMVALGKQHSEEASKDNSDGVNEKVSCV

HepG2 [10] = experiment: Hepatotoxicity in human HepG2 cells at 10 uM incubated for 48 hrs by MTS assay; format: toxicity, cell-based; settings: hepg2, 48 h
[11] = Metabolic stability in human liver microsomes by LC-MS/MS analysis; format: ADME, Microsome
[12] = Inhibition of NDH-2 in wild type Mycobacterium smegmatis mc24517 inverted membrane vesicles by NADH oxygen consumption assay; format: cell membranes, Mycolicibacterium smegmatis, Membrane vesicle
[13] = Inhibition of NDH-2 in Mycobacterium tuberculosis H37Rv inverted membrane vesicles over expressing ndh gene by NADH oxygen consumption assay; format: cell membranes, Membrane vesicle
HepG2 [14] = experiment: Hepatotoxicity in human HepG2 cells at 50 uM incubated for 48 hrs by MTS assay; format: toxicity, cell-based; settings: hepg2, 48 h

`CN(C)CCCN1c2ccccc2Sc2ccc(Cl)cc21` [CHLORPROMAZINE] showed an MIC90 [1] of 0.08 µg/mL (≈ 0.251 µM), an MIC [2] of 4.41 µg/mL (≈ 13.8 µM) and an IC50 (Vero) of 26.5 µg/mL (≈ 83.2 µM).

For `CN(C)CCCN1c2ccc(Br)cc2Sc2cc(Br)cc(F)c21.Cl`, the MIC [2] was 5.7 µg/mL and the IC50 (Vero) was 34.7 µg/mL.

For `Brc1ccc2c(c1)Sc1cc(Br)ccc1N2CCCN1CCOCC1.Cl`, the MIC [2] was 5.52 µg/mL and the IC50 (Vero) was > 50 µg/mL.

In the case of `CN1CCCCC1CCN1c2ccccc2Sc2cc(Cl)ccc21.Cl` (stereo not drawn), the MIC [2] is reported as 5.48 µg/mL, the IC50 (Vero) is reported as 30.7 µg/mL and the inhibition [3] is reported as 47.5%. The inhibition [4] was 12.5%.

For `CO[C@H]1/C=C/O[C@@]2(C)Oc3c(C)c(O)c4c(O)c(c(/C=N/N5CCN(C)CC5)c(O)c4c3C2=O)NC(=O)/C(C)=C\C=C\[C@H](C)[C@H](O)[C@@H](C)[C@@H](O)[C@@H](C)[C@H](OC(C)=O)[C@@H]1C` [RIFAMPIN], the MIC90 [5] was 0.06 µg/mL (≈ 0.0729 µM), the MIC90 [1] was > 128 µg/mL and the MIC [2] was 0.01 µg/mL (≈ 0.0122 µM). The MIC90 [6] was 0.06 µg/mL (≈ 0.0729 µM).

`CN(C)CCCN1c2ccccc2Sc2cc(Cl)ccc21.Cl` showed an MIC [2] of 6.59 µg/mL and an IC50 (Vero) of 35.8 µg/mL.

Compound `Cl.Clc1cc(Cl)c2c(c1)Sc1cc(Cl)cc(Cl)c1N2CCCN1CCCC1` has an MIC [2] of 1.5 µg/mL and an IC50 (Vero) of 18 µg/mL.

Work on `CSc1ccc2c(c1)N(CCC1CCCCN1C)c1ccccc1S2` (stereo not drawn) [THIORIDAZINE] yielded an MIC90 [1] of 5.29 µg/mL (≈ 14.3 µM), an MIC [2] of 2.4 µg/mL (≈ 6.48 µM) and an IC50 (Vero) of 17.8 µg/mL (≈ 48 µM). The Ki [7] was 71 nM and the Ki [8] was 181 nM.

`CN(C)CCCN1c2ccc(Br)cc2Sc2cc(Br)ccc21.Cl` showed an MIC [2] of 2.38 µg/mL, an IC50 (Vero) of 27 µg/mL and an inhibition [3] of 69.4%. For the same compound, the inhibition [4] was 40.7%.

Compound `CN1CCCCC1CCN1c2ccc(Br)cc2[Se]c2cc(Br)ccc21.Cl` (stereo not drawn) has an MIC [2] of 2.35 µg/mL, an IC50 (Vero) of 17.6 µg/mL and a Ki (D(2) dopamine receptor) of 367 nM. For the same compound, the Ki [9] was 1760 nM, the Ki [7] was 222 nM and the Ki [8] was 2340 nM. For the same compound, the Activity (HepG2 [10]) was “Non-Toxic” and the Stabilty [11] was “Stable”.

Work on `NNC(=O)c1ccncc1` [ISONIAZID] yielded an MIC90 [1] of 2.46 µg/mL (≈ 17.9 µM) and an MIC [2] of 0.25 µg/mL (≈ 1.82 µM).

Work on `CN1CCCCC1CCN1c2ccc(Br)cc2Sc2cc(Br)cc(F)c21.Cl` (stereo not drawn) yielded an MIC [2] of 2.65 µg/mL and an IC50 (Vero) of 17.7 µg/mL.

In the case of `Brc1ccc2c(c1)Sc1cc(Br)ccc1N2CCN1CCCC1`, the MIC [2] is reported as 2.57 µg/mL (≈ 5.66 µM) and the IC50 (Vero) is reported as 9.42 µg/mL (≈ 20.7 µM).

For `Brc1ccc2c(c1)Sc1cc(Br)ccc1N2CCN1CCOCC1.Cl`, the MIC [2] was > 100 µg/mL and the IC50 (Vero) was > 100 µg/mL.

In the case of `CN1CCCCC1CCN1c2c(Cl)cc(Cl)cc2Sc2cc(Cl)cc(Cl)c21.Cl` (stereo not drawn), the MIC90 [5] is reported as 3.1 µg/mL, the MIC90 [1] is reported as 2.89 µg/mL and the MIC [2] is reported as 1.55 µg/mL. For the same compound, the IC50 (Vero) was 26.9 µg/mL, the IC50 [12] was 3.6 µg/mL and the inhibition [3] was 92.4%. It also gave an IC50 [13] of 4.5 µg/mL, an inhibition [4] of 74.2% and an MIC90 [6] of 3.1 µg/mL. For the same compound, the Ki (D(2) dopamine receptor) was 639 nM, the Ki [9] was 1240 nM and the Ki [7] was 387 nM. The Ki [8] was 1000 nM and the Activity (HepG2 [14]) was “Non-Toxic”.

Compound `CN1CCCCC1CCN1c2ccc(Br)cc2Sc2cc(Br)ccc21.Cl` (stereo not drawn) has an MIC90 [5] of 3.1 µg/mL, an MIC90 [1] of 2.96 µg/mL and an MIC [2] of 1.5 µg/mL. For the same compound, the IC50 (Vero) was 18.3 µg/mL, the IC50 [12] was 4.7 µg/mL and the inhibition [3] was 93.7%. It also gave an IC50 [13] of 11.2 µg/mL, an inhibition [4] of 84.8% and an MIC90 [6] of 3.1 µg/mL. It also gave a Ki (D(2) dopamine receptor) of 688 nM, a Ki [9] of 1750 nM and a Ki [7] of 758 nM. The Ki [8] was 2150 nM, the Activity (HepG2 [10]) was “Toxic” and the Stabilty [11] was “Unstable”.

In the case of `Cl.Clc1cc(Cl)c2c(c1)Sc1cc(Cl)cc(Cl)c1N2CCCN1CCOCC1`, the MIC [2] is reported as > 50 µg/mL.

With `CN(C)CCCN1c2ccc(Cl)cc2Sc2cc(Cl)cc(Cl)c21.Cl` the MIC [2] was 4.46 µg/mL and the IC50 (Vero) was 16.8 µg/mL.

For `Brc1ccc2c(c1)Sc1cc(Br)ccc1N2CCCN1CCCC1.Cl`, the MIC [2] was 1.45 µg/mL and the IC50 (Vero) was 17.1 µg/mL.

Compound `CCCCCCCc1cc(O)c2ccccc2[n+]1[O-]` has an inhibition [3] of 18.1% and an inhibition [4] of 29.2%.

`CN(C)CCCN1c2ccc(Cl)cc2Sc2cc(Cl)ccc21.Cl` gave an MIC [2] of 2.51 µg/mL and an IC50 (Vero) of 16.7 µg/mL.

For `CN1CCCCC1CCN1c2ccc(Cl)cc2Sc2cc(Cl)ccc21.Cl` (stereo not drawn), the MIC [2] was 2.4 µg/mL, the IC50 (Vero) was 17.9 µg/mL and the IC50 [12] was 6.5 µg/mL. It also gave an inhibition [3] of 85.4% and an inhibition [4] of 59.3%.

Compound `CN1CCCCC1CCN1c2ccc(Cl)cc2Sc2cc(Cl)cc(Cl)c21.Cl` (stereo not drawn) has an MIC [2] of 2.67 µg/mL and an IC50 (Vero) of 19.2 µg/mL.

With `N=c1sc(-c2ccc(F)cc2)nn1CC(=O)N1c2ccc(Br)cc2Sc2cc(Br)ccc21` the MIC [2] was > 50 µg/mL.

With `Brc1ccc2c(c1)Sc1cc(Br)ccc1N2Cc1ccccn1.Cl` the MIC [2] was > 100 µg/mL and the IC50 (Vero) was > 100 µg/mL.

`CC(=O)NC[C@H]1CN(c2ccc(N3CCOCC3)c(F)c2)C(=O)O1` [LINEZOLID] showed an MIC [2] of 0.87 µg/mL (≈ 2.58 µM).
